Structures can show the parent of a compound that is named as a salt.
Key:
[1] = biological target: purified DHFR of the reference strain S. aureus ATCC 25923 (Staphylococcus aureus, UniProt P0A017); test: Inhibition of purified DHFR of reference strain S. aureus ATCC 25923; type: biochemical
[2] = system: purified DHFR of the multi-resistant strain S. aureus 157/4696; test: Inhibition of purified DHFR of multi-resistant strain S. aureus 157/4696; type: biochemical; conditions: determined graphically
Experimental: The inhibition of the enzyme was taken as a measurement for the antibacterial activity. It is determined using the method of Baccanari and Joyner (Biochemistry 20, 1710 (1981)); see also P. G. Hartman et al., FEB 242, 157-160 (1988).
The IC50 values (concentration at which the enzyme is inhibited to 50%) are determined graphically.
The following Table contains inhibitory concentrations determined in the above test for representative members of the class of compound defined by formula I. The C50 values (μM) are given against the purified DHFR of the reference strain S. aureus ATCC 35923 as well as against the purified DHFR of the multi-resistant strain S. aureus 157/4696. […] The inhibition constants of trimethoprim are also given as a comparison.

[3] = biological target: T1, purified DHFR of the opportunistic pathogen P. carinii (Pneumocystis carinii, UniProt P16184); test: biochemical; conditions: determined graphically
T1 sequence (P16184 1-206): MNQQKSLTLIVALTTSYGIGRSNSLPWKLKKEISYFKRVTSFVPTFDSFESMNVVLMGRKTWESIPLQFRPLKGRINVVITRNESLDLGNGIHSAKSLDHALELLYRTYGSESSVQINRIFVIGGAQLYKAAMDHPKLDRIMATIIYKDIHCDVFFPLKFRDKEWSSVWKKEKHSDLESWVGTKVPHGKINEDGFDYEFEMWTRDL

Sequence of purified DHFR of the reference strain S. aureus ATCC 25923 (P0A017 whole entry): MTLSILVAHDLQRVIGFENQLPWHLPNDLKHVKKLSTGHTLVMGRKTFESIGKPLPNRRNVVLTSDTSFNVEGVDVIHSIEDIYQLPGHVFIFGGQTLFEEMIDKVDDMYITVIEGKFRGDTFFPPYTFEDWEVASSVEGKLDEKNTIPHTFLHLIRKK

| SMILES | IC50 [1] [nM] | IC50 [2] [nM] | IC50 [3] [nM] |
| --- | --- | --- | --- |
| COc1cc(Cc2cnc(N)nc2N)cc(-c2ccc3ccccc3c2)c1OC [Example 4h, 5-(3,4-dimethoxy-5-naphthalen-2-yl-benzyl)pyrimidine-2,4-diamine] | 2.2 | 1300 | 1600 |
| COc1cc(Cc2cnc(N)nc2N)cc(-c2cccc(O)c2)c1OC [Example 5b, 5-(3'-hydroxy-5,6-dimethoxy-biphenyl-3-ylmethyl)-pyrimidine-2,4-diamine] | 4 | 2200 | 2300 |
| COc1cc(Cc2cnc(N)nc2N)cc(-c2ccc(C(=O)O)cc2)c1OC [Example 5c, 5-(4'-carboxyl-5,6-dimethoxy-biphenyl-3-ylmethyl)-pyrimidine-2,4-diamine hydrochloride] | 0.9 | 420 | 480 |
| COc1cc(Cc2cnc(N)nc2N)cc(-c2ccc3cc(O)ccc3c2)c1OC [Example 5h, 5-(3,4-dimethoxy-5-naphthalen-6-hydroxy-2-yl-benzyl)-pyrimidine-2,4-diamine] | 1.3 | 500 | 1000 |
| COc1cc(Cc2cnc(N)nc2N)cc(-c2cc3c(cc2F)c(=O)c(C(=O)O)cn3C2CC2)c1OC [Example 9a, 1-cyclopropyl-7-[5-(2,4-diaminopyrimidin-5-ylmethyl)-2,3-dimethoxy-phenyl]-6-fluoro-1,4-dihydro-4-oxo-quinoline-3-carboxylic acid trifluoroacetate] | 0.9 | 50 | 19 |
| COc1ccc(Cc2cnc(N)nc2N)cc1-c1cc2c(cc1F)c(=O)c(C(=O)O)cn2C1CC1 [Example 9b, 1-cyclopropyl-7-[5-(2,4-diamino-pyrimidin-5-ylmethyl)-2-methoxy-phenyl]-6-fluoro-1,4-dihydro-4-oxo-quinoline-3-carboxylic acid trifluoroacetate] | 0.2 | 110 | 38 |
| Nc1ncc(Cc2cccc(-c3cc4c(cc3F)c(=O)c(C(=O)O)cn4C3CC3)c2)c(N)n1 [Example 9c, 1-cyclopropyl-7-[5-(2,4-diamino-pyrimidin-5-ylmethyl)-phenyl]-6-fluoro-1,4-dihydro-4-oxo-quinoline-3-carboxylic acid] | 1.9 | 210 | 200 |
| COc1cc(Cc2cnc(N)nc2N)cc(C=Cc2ccc3ccccc3c2)c1OC [Example 10b, 5-[3,4-dimethoxy-5-(2-naphthalen-2-yl-vinyl)-benzyl]-pyrimidine-2,4-diamine] | 20 | 750 | 4000 |
| CCOC(=O)c1cn(CC)c2cc(C#Cc3cc(Cc4cnc(N)nc4N)cc(OC)c3OC)ccc2c1=O [Example 12g, ethyl 1-ethyl-7-[5-(2,4-diamino-pyrimidin-5-ylmethyl)-2,3-dimethoxy-phenylethynyl]-4-oxo-1,4-dihydro-quinoline-3-carboxylate] | 5 | 130 | 900 |
| COc1cc(Cc2cnc(N)nc2N)cc(C#Cc2ccc3ccccc3c2)c1OC [Example 15a, 5-[3,4-dimethoxy-5-(naphthalen-2-ylethynyl)-benzyl]-pyrimidine-2,4-diamine] | 15 | 700 | 8000 |
| COc1cc(Cc2cnc(N)nc2N)cc(C#Cc2ccc3c(=O)c(C(=O)O)cn(C(C)(C)C)c3c2)c1OC [Example 16ac, 1-tert-butyl-7-[5-(2,4-diamino-pyrimidin-5-ylmethyl)-2,3-dimethoxy-phenylethynyl]-4-oxo-1,4-dihydro-quinoline-3-carboxylate hydrochloride] | 0.9 | 1.6 | 190 |
| COc1cc(Cc2cnc(N)nc2N)cc(C#Cc2c(F)cc3c(=O)c(C(=O)O)cn(C4CC4)c3c2F)c1OC [Example 16c, 1-cyclopropyl-7-[5-(2,4-diamino-pyrimidin-5ylmethyl)-2,3-dimethoxy-phenylethynyl]-6,8-difluoro-1,4-dihydro-4-oxo-quinoline-3-carboxylic acid hydrochloride] | 1.2 | 2.4 | 36 |
| COc1cc(Cc2cnc(N)nc2N)cc(C#Cc2cc3c(cc2F)c(=O)c(C(=O)O)cn3C2CC2)c1OC [Example 16e, 1-cyclopropyl-7-[5-(2,4-diamino-pyrimidin-5-ylmethyl)-2,3-dimethoxy-phenylethynyl]-6-fluoro-4-oxo-1,4-dihydro-quinoline-3-carboxylic acid trifluoroacetate] | 2.9 | 80 | 3400 |
| CCn1cc(C(=O)O)c(=O)c2cc(F)c(C#Cc3cc(Cc4cnc(N)nc4N)cc(OC)c3OC)cc21 [Example 16f, 1-ethyl-7-[5-(2,4-diamino-pyrimidin-5-ylmethyl)-2,3-dimethoxy-phenylethynyl]-6-fluoro-4-oxo-1,4-dihydro-quinoline-3-carboxylic acid hydrochloride] | 1.5 | 6.5 | 280 |
| COc1cc(Cc2cnc(N)nc2N)cc(C#Cc2ccc3cc(C(=O)O)ccc3c2)c1OC [Example 16j, 6-[5-(2,4-diamino-pyrimidin-5-ylmethyl)-2,3-dimethoxy-phenylethynyl]-naphthalene-2-carboxylic acid hydrochloride] | 0.9 | 24 | 5000 |
| COc1cc(Cc2cnc(N)nc2N)cc(C#Cc2ccc3c(=O)c(C(=O)O)cn(Cc4ccccc4)c3c2)c1OC [Example 16p, hydrochloride] | 1.2 | 1.3 | 140 |
